Laboratory results from patent publication US8895004B2 (priority 2007, dated 2014).
“Also recorded” adds a separate entry of the source.

Assays:
[1] = test system: cultured hippocampal neurons treated with ω-conotoxin (P/Q-dominated cells); type: cell-based, rat
N-type currents = N-type currents (Rattus norvegicus, UniProt Q02294); type: cell-based

Compound	amplitude of spontaneous synaptic currents [1]	reversal of Aβ globulomer-induced reduction of frequency of spontaneous synaptic events [1]	amplitude of synaptic events (mIPSCs) [1]	effect on amplitude of mIPSCs when P/Q channels are already blocked [1]	effect on synaptic activity / frequency of mIPSCs after blockade of P/Q channels by ω-agatoxin [1]	frequency of spontaneous synaptic events [1]	N-type calcium current amplitude (N-type currents) [pA]
CC[C@H](CO)Nc1nc(NCc2ccccc2)c2ncn(C(C)C)c2n1 [roscovitine]	No effect	reversal					
Aβ(1-42) globulomer: soluble, globular, non-covalent association of Aβ(1-42) peptides, apparent molecular weight 38/48 kDa, obtained as in Example 6b of WO2004/067561			no or little effect; also recorded: no effect	No effect	No additive effect; also recorded: no further effect	inhibits the frequency of spontaneous synaptic events	1399.8±376.4
